Data from ChEMBL document CHEMBL3813627, “Preventive effect of a novel diosgenin derivative on arterial and venous thrombosis in vivo” (Bioorg Med Chem Lett, 2016).
The source made the active and inactive calls. No cut-off for these calls is given here.

Legend:
Mus musculus [1] = experiment: Toxicity in Balb/c mouse assessed as hemoglobin count at 66.2 mg/kg, ig bid for 7 days (reference value: 143 +/- 11.9 g/L); assay type: organism-based; conditions: in vivo, po, 168 h
Mus musculus [2] = experiment: Toxicity in Balb/c mouse assessed as white blood cell count at 66.2 mg/kg, ig bid for 7 days (reference value: 7.7 +/- 0.65 10^9/L); assay type: organism-based; conditions: in vivo, po, 168 h
Rattus norvegicus [3] = experiment: Antiplatelet activity in platelet-rich plasma isolated from Sprague-Dawley rat assessed as ADP-induced platelet aggregation at 46 mg/kg, ig bid for 7 days measured for 5 mins by light transmission aggregometry (reference value: 57.57 +/- 2.43 %); assay type: functional
Rattus norvegicus [4] = experiment: Anticoagulant activity in platelet-rich plasma isolated from Sprague-Dawley rat assessed as activated partial thromboplastin time at 46 mg/kg, ig bid for 7 days (reference value: 17.6 +/- 0.92 secs); assay type: functional
Mus musculus [5] = experiment: Toxicity in Balb/c mouse assessed as platelet count at 66.2 mg/kg, ig bid for 7 days (reference value: 802 +/- 74 10^9/L); assay type: organism-based; conditions: in vivo, po, 168 h
Mus musculus [6] = experiment: Toxicity in Balb/c mouse assessed as red blood cell count at 66.2 mg/kg, ig bid for 7 days (reference value: 7.55 +/- 0.59 10^12/L); assay type: organism-based; conditions: in vivo, po, 168 h
Rattus norvegicus [7] = experiment: Anticoagulant activity in platelet-rich plasma isolated from Sprague-Dawley rat assessed as prothrombin time at 46 mg/kg, ig bid for 7 days (reference value: 11.6 +/- 0.98 secs); assay type: functional
Rattus norvegicus [8] = species: Rattus norvegicus; experiment: Gastric toxicity in Sprague-Dawley rat assessed as angiogenesis treated for 49 days by hematoxylin and eosin staining based microscopic analysis; assay type: organism-based; conditions: in vivo, 1176 h
Rattus norvegicus [9] = species: Rattus norvegicus; experiment: Gastric toxicity in Sprague-Dawley rat assessed as gastric mucosal damage score treated for 49 days by hematoxylin and eosin staining based microscopic analysis; assay type: organism-based, Gastric mucosa; conditions: in vivo, 1176 h
Rattus norvegicus [10] = experiment: Anticoagulant activity in platelet-rich plasma isolated from Sprague-Dawley rat assessed as thrombin time at 46 mg/kg, ig bid for 7 days (reference value: 47.1 +/- 3.1 secs); assay type: functional
Mus musculus [11] = experiment: Toxicity in Balb/c mouse assessed as hematocrit at 66.2 mg/kg, ig bid for 7 days (reference value: 40.5 +/- 3.5 %); assay type: organism-based; conditions: in vivo, po, 168 h
Rattus norvegicus [12] = species: Rattus norvegicus; experiment: Gastric toxicity in Sprague-Dawley rat assessed as fibrotic changes treated for 49 days by hematoxylin and eosin staining based microscopic analysis; assay type: organism-based; conditions: in vivo, 1176 h
Rattus norvegicus [13] = experiment: In vivo activation of coagulation factor8 in Sprague-Dawley rat at 64 mg/kg, ig bid for 7 days by automated coagulometry; assay type: functional, organism-based
Mus musculus [14] = experiment: Toxicity in Balb/c mouse assessed as tail bleeding time at 92.1 mg/kg, ig bid for 7 days (reference value: 186 +/- 12 sec); assay type: organism-based; conditions: in vivo, po
Rattus norvegicus [15] = experiment: In vivo activation of coagulation factor11 in Sprague-Dawley rat at 64 mg/kg, ig bid for 7 days by automated coagulometry; assay type: functional, organism-based
Rattus norvegicus [16] = experiment: Antiplatelet activity in platelet-rich plasma isolated from ig dosed Sprague-Dawley rat assessed as inhibition of ADP-induced platelet aggregation administered bid for 7 days measured for 5 mins by light transmission aggregometry; assay type: functional, organism-based
Rattus norvegicus [17] = experiment: In vivo activation of coagulation factor10 in Sprague-Dawley rat at 64 mg/kg, ig bid for 7 days by automated coagulometry; assay type: functional, organism-based
Rattus norvegicus [18] = experiment: Anticoagulant activity in platelet-rich plasma isolated from Sprague-Dawley rat assessed as thrombin time at 64 mg/kg, ig bid for 7 days (reference value: 47.1 +/- 3.1 secs); assay type: functional
Rattus norvegicus [19] = experiment: In vivo activation of coagulation factor9 in Sprague-Dawley rat at 64 mg/kg, ig bid for 7 days by automated coagulometry; assay type: functional, organism-based
Rattus norvegicus [20] = experiment: Anti-thrombotic activity in Sprague-Dawley rat model of FeCl3-induced arterial thrombosis assessed as arterial thrombus weight at 64 mg/kg, ig bid for 7 days (reference value: 12.94 +/- 0.7 mg); assay type: functional
Mus musculus [21] = experiment: Toxicity in Balb/c mouse assessed as red blood cell count at 92.1 mg/kg, ig bid for 7 days (reference value: 7.55 +/- 0.59 10^12/L); assay type: organism-based; conditions: in vivo, po, 168 h
Rattus norvegicus [22] = experiment: Anti-thrombotic activity in Sprague-Dawley rat model of FeCl3-induced venous thrombosis assessed as venous thrombus length at 64 mg/kg, ig bid for 7 days by vernier caliper method (reference value: 10.66 +/- 0.81 mm); assay type: functional
Mus musculus [23] = experiment: Toxicity in Balb/c mouse assessed as mortality at 92.1 to 575.5 mg/kg, po administered as single dose for 7 days; assay type: organism-based; conditions: in vivo, 168 h
Rattus norvegicus [24] = experiment: Anticoagulant activity in platelet-rich plasma isolated from Sprague-Dawley rat assessed as activated partial thromboplastin time at 64 mg/kg, ig bid for 7 days (reference value: 17.6 +/- 0.92 secs); assay type: functional
Rattus norvegicus [25] = experiment: Antiplatelet activity in platelet-rich plasma isolated from Sprague-Dawley rat assessed as ADP-induced platelet aggregation at 64 mg/kg, ig bid for 7 days measured for 5 mins by light transmission aggregometry (reference value: 57.57 +/- 2.43 %); assay type: functional
Mus musculus [26] = experiment: Hepatotoxicity in Balb/c mouse assessed as changes in serum GOT level at 92.1 to 575.5 mg/kg, po administered as single dose for 7 days; assay type: toxicity, organism-based; conditions: in vivo, 168 h
Mus musculus [27] = experiment: Toxicity in Balb/c mouse assessed as platelet count at 92.1 mg/kg, ig bid for 7 days (reference value: 802 +/- 74 10^9/L); assay type: organism-based; conditions: in vivo, po, 168 h
Mus musculus [28] = experiment: Toxicity in Balb/c mouse assessed as hematocrit at 92.1 mg/kg, ig bid for 7 days (reference value: 40.5 +/- 3.5 %); assay type: organism-based; conditions: in vivo, po, 168 h
Mus musculus [29] = experiment: Toxicity in Balb/c mouse assessed as hemoglobin count at 92.1 mg/kg, ig bid for 7 days (reference value: 143 +/- 11.9 g/L); assay type: organism-based; conditions: in vivo, po, 168 h
Rattus norvegicus [30] = experiment: In vivo activation of coagulation factor12 in Sprague-Dawley rat at 64 mg/kg, ig bid for 7 days by automated coagulometry; assay type: functional, organism-based
Mus musculus [31] = experiment: Hepatotoxicity in Balb/c mouse assessed as histopathological changes at 92.1 to 575.5 mg/kg, po administered as single dose for 7 days by hematoxylin and eosin staining based microscopic analysis; assay type: toxicity, organism-based; conditions: in vivo, 168 h
Rattus norvegicus [32] = experiment: Anti-thrombotic activity in Sprague-Dawley rat model of FeCl3-induced venous thrombosis assessed as venous thrombus weight at 64 mg/kg, ig bid for 7 days (reference value: 17.1 +/- 0.69 mg); assay type: functional
Mus musculus [33] = experiment: Hepatotoxicity in Balb/c mouse assessed as changes in serum GPT level at 92.1 to 575.5 mg/kg, po administered as single dose for 7 days; assay type: toxicity, organism-based; conditions: in vivo, 168 h
Mus musculus [34] = experiment: Toxicity in Balb/c mouse assessed as white blood cell count at 92.1 mg/kg, ig bid for 7 days (reference value: 7.7 +/- 0.65 10^9/L); assay type: organism-based; conditions: in vivo, po, 168 h
Rattus norvegicus [35] = experiment: Anticoagulant activity in platelet-rich plasma isolated from Sprague-Dawley rat assessed as prothrombin time at 64 mg/kg, ig bid for 7 days (reference value: 11.6 +/- 0.98 secs); assay type: functional
Rattus norvegicus [36] = experiment: Anti-thrombotic activity in Sprague-Dawley rat model of FeCl3-induced arterial thrombosis assessed as arterial thrombus length at 64 mg/kg, ig bid for 7 days by vernier caliper method (reference value: 10.5 +/- 0.83 mm); assay type: functional

For C[C@@H]1CC[C@@]2(OC1)O[C@H]1C[C@H]3[C@@H]4CC=C5C[C@@H](O)CC[C@]5(C)[C@H]4CC[C@]3(C)[C@H]1[C@@H]2C [DISOGENIN], the Activity (Mus musculus [1]) was 137 g/L, the Activity (Mus musculus [2]) was 7.99 ×10⁹ /L and the Activity (Rattus norvegicus [3]) was 49.14%. For the same molecule, the APTT (Rattus norvegicus [4]) was 19.2 s, the Activity (Mus musculus [5]) was 788 ×10⁹ /L and the Activity (Mus musculus [6]) was 7.45 ×10¹² /L. The PT (Rattus norvegicus [7]) was 15.2 s, the Activity (Rattus norvegicus [8]) was “Non-toxic” and the UI (Rattus norvegicus [9]) was 1.33. The TT (Rattus norvegicus [10]) was 53.2 s, the Activity (Mus musculus [11]) was 39.4% and the Activity (Rattus norvegicus [12]) was “Non-toxic”.
With CC(=O)Oc1ccccc1C(=O)O[C@H]1CC[C@@]2(C)C(=CC[C@H]3[C@@H]4C[C@@H]5O[C@]6(CC[C@@H](C)CO6)[C@@H](C)[C@@H]5[C@@]4(C)CC[C@@H]32)C1 the Activity (Rattus norvegicus [13]) was “Active”, the Time (Mus musculus [14]) was 676 s and the Activity (Rattus norvegicus [15]) was “inactive”. The inhibition (Rattus norvegicus [16]) was “Dose-dependent effect”, the Activity (Rattus norvegicus [17]) was “inactive” and the TT (Rattus norvegicus [18]) was 46.7 s. For the same molecule, the Activity (Rattus norvegicus [19]) was “inactive”, the Activity (Rattus norvegicus [20]) was 6.34 mg and the Activity (Mus musculus [21]) was 7.05 ×10¹² /L. The Activity (Rattus norvegicus [22]) was 5.83 mm, the Activity (Rattus norvegicus [8]) was “Non-toxic” and the Activity (Mus musculus [23]) was “Non-toxic”. It also gave an APTT (Rattus norvegicus [24]) of 22.6 s, a UI (Rattus norvegicus [9]) of 0.66 and an Activity (Rattus norvegicus [25]) of 29.42%. The Activity (Mus musculus [26]) was “Non-toxic”, the Activity (Mus musculus [27]) was 790 ×10⁹ /L and the Activity (Mus musculus [28]) was 38.9%. For the same molecule, the Activity (Mus musculus [29]) was 133 g/L, the Activity (Rattus norvegicus [30]) was “inactive” and the Activity (Mus musculus [31]) was “Non-toxic”. For the same molecule, the Activity (Rattus norvegicus [32]) was 9.12 mg, the Activity (Rattus norvegicus [12]) was “Non-toxic” and the Activity (Mus musculus [33]) was “Non-toxic”. The Activity (Mus musculus [34]) was 7.82 ×10⁹ /L, the PT (Rattus norvegicus [35]) was 11.4 s and the Activity (Rattus norvegicus [36]) was 5 mm.
